“And” between values parts separate entries of the source, which are not always exact repeats. Equal entries are not always repeated. Where two headings read alike, the source gives them in different places.
Experiments:
[1] = biological target: yeast F1Fo ATP synthase (Saccharomyces cerevisiae, UniProt P00854+P61829); assay: biochemical
[2] = system: yeast mitochondria; assay: Membrane potential of yeast mitochondria, fluorescence quenching of Rhodamine 123; format: biochemical, Saccharomyces cerevisiae; conditions: high concentrations
Description: The membrane potential was assessed by measuring fluorescence quenching of Rhodamine 123 at 488 nm excitation and 525 nm emission in a buffer containing 0.65 M mannitol, 20 mM bis-tris-propane, 2 mM tris-phosphate, 0.3 mM EGTA, pH 6.8 with Rhodamine 123 dissolved in methanol (1.0 µM). Yeast mitochondria were energized with ethanol (0.4% v/v), whereas human mitochondria were energized with glutamate/malate (5 mM/2.5 mM).

## COc1nc2ccc(Br)cc2cc1[C@@H](c1ccccc1)[C@@](O)(CCN(C)C)c1cccc2ccccc12 [BDQ, Bedaquiline]
[1]; BDQ, F1Fo in bicelles
  Hillslope, four parameter logistic fit: -1.0426
[1]; BDQ, F1Fo in bicelles, […]
  max, four parameter logistic fit: 1.167
  min, four parameter logistic fit: 0.2116
[1]; BDQ, F1Fo in bicelles, x in µM BDQ, read-out: EC50, four parameter logistic fit (coefficient) (converted)
  EC50: 0.0272 µM
[1]; F1Fo in bicelles, BDQ 0.0246 uM
  ATP hydrolysis activity (ΔA340nm), Exp 1-3: 0.6436 and 0.6522 and 0.6471
[1]; F1Fo in bicelles, BDQ 0.0372 uM
  ATP hydrolysis activity (ΔA340nm), Exp 1-3: 0.615 and 0.6977 and 0.5128
[1]; F1Fo in bicelles, BDQ 0.0744 uM
  ATP hydrolysis activity (ΔA340nm), Exp 1-3: 0.5405 and 0.4979 and 0.4346
[1]; F1Fo in bicelles, BDQ 0.25 uM
  ATP hydrolysis activity (ΔA340nm), Exp 1-3: 0.379 and 0.272 and 0.2957
[1]; F1Fo in bicelles, BDQ 0.37 uM
  ATP hydrolysis activity (ΔA340nm), Exp 1-3: 0.3688 and 0.2428 and 0.2764
[1]; F1Fo in bicelles, BDQ 0.74 uM
  ATP hydrolysis activity (ΔA340nm), Exp 1-3: 0.2533 and 0.2466 and 0.2454
[1]; F1Fo in bicelles, BDQ 1.49 uM
  ATP hydrolysis activity (ΔA340nm), Exp 1-3: 0.2105 and 0.2204 and 0.2061
[1]; F1Fo in bicelles, BDQ 3.72 uM
  ATP hydrolysis activity (ΔA340nm), Exp 1-3: 0.2216 and 0.2051 and 0.1755
[1]; F1Fo in bicelles, BDQ 7.44 uM
  ATP hydrolysis activity (ΔA340nm), Exp 1-3: 0.2035 and 0.2344 and 0.1804
[1]; F1Fo in bicelles, BDQ 18.61 uM
  ATP hydrolysis activity (ΔA340nm), Exp 1-3: 0.2777 and 0.1895 and 0.1989
[1]; F1Fo in bicelles, BDQ 37.22 uM
  ATP hydrolysis activity (ΔA340nm), Exp 1-3: 0.2178 and 0.2279 and 0.1889
[1]; F1Fo in bicelles, BDQ 52.11 uM
  ATP hydrolysis activity (ΔA340nm), Exp 1-3: 0.1835 and 0.2422 and 0.1841
[1]; F1Fo in bicelles, BDQ 74.45 uM
  ATP hydrolysis activity (ΔA340nm), Exp 1-3: 0.1959 and 0.193 and 0.2223
[1]; F1Fo in bicelles, maximal
  inhibition of ATP hydrolysis by yeast F1Fo (extent): ~85%
[1]; F1Fo in bicelles, n = 3, read-out: IC50 ± SEM, ATP hydrolysis, purified yeast F1Fo
  IC50: 27 ± 2.5 nM
[1]; F1Fo in bicelles, read-out: IC50, ATP hydrolysis, purified yeast F1Fo
  IC50: ~25 nM
[1]; reconstituted in bicelles, n = 3, read-out: EC50, inhibition of the ATPase activity of purified yeast ATP synthase
  EC50: 0.027 ± 0.0025 µM
[2]
  effect on membrane potential, yeast mitochondria: partial effect

Reference: article PMC7438494 (Communications Biology, 2020)
